Measured values from US20100152156A1, “2-Azetidinone Derivatives For The Treatment Of Hyperlipidaemic Diseases” (ASTRAZENECA AB, priority 2005, published 2010).

Tests used:
[1] = Absorption in a Caco-2 cells model; format: in vitro ADME; settings: human
Description: Absorption of the compounds of formula (I) was tested in a Caco-2 cells model (Gastroenterology 1989, 96, 736): […]

[2] = test system: ^14C-cholesterol absorption; test: In vivo testing of cholesterol absorption inhibitors (A); settings: procedure A, C57BL/6 female mice
Description: In Vivo Testing of Cholesterol Absorption Inhibitors (A)
C57BL/6 female mice were maintained on regular chow diet and housed in individual cages to collect faeces. Mice were fasted for 3 hours and then gavaged with vehicle or compound. Half an hour later the mice were gavaged with radiolabelled cholesterol. Six hours after the ^14C-cholesterol gavage blood samples were taken via the tail and plasma prepared to determine how much cholesterol were absorbed. 24 hours after the gavage of ^14C-cholesterol the mice were bled and plasma were prepared for analysis. Faeces were collected for 24 hours to assess absorption efficiency.

| Papp [1] | SMILES | inhibition of ^14C-cholesterol absorption ([2]; administration of 0.2 mmol/kg by gavage) | inhibition of ^14C-cholesterol absorption ([2]; administration of 0.2 μmol/kg by gavage) |
| --- | --- | --- | --- |
| 0.12 ×10⁻⁶ cm/s | CC(C)(C)[C@@H](NC(=O)CNC(=O)COc1ccc([C@@H]2[C@@H](SCC(O)c3ccc(F)cc3)C(=O)N2c2ccc(F)cc2)cc1)C(=O)NCC(=O)O (single isomer, unassigned) [Example 6, N-{[4-((2R,3R)-1-(4-fluorophenyl)-3-{[(2R or S)-2-(4-fluorophenyl)-2-hydroxyethyl]thio}-4-oxoazetidin-2-yl)phenoxy]acetyl}glycyl-3-methyl-D-valylglycine] | 49% |  |
|  | CC(C)(C)[C@@H](NC(=O)CNC(=O)COc1ccc([C@@H]2[C@@H](SCC(O)c3ccc(F)cc3)C(=O)N2c2ccc(F)cc2)cc1)C(=O)N[C@H](CO)C(=O)O (single isomer, unassigned) [Example 7, N-{[4-((2R,3R)-1-(4-fluorophenyl)-3-{[(2R or S)-2-(4-fluorophenyl)-2-hydroxyethyl]thio}-4-oxoazetidin-2-yl)phenoxy]acetyl}glycyl-3-methyl-D-valyl-D-serine] |  | 46% |
